# Measurements taken from patent publication US20210115000A1, “NILE RED DERIVATIVES FOR IMPROVED RATIOMETRIC IMAGING FOR NERVE SPECIFIC CONTRAST” (Oregon Health & Sciences University, priority 2018, published 2021).
# Experiments:
# [1] = tested on: sciatic nerve or brachial plexus nerve sites (adipose, nerve, muscle tissue); experiment: In vivo imaging following direct/topical administration on rodent nerve sites; parameters: species or system male CD-1 mice; details: immediately following direct administration
# Text: In vivo images were acquired using a previously published, custom-built small animal fluorescence imaging system, described briefly here.^27 Fluorescent images were obtained using a Qimaging EXi Blue monochrome camera (Surrey, British Columbia, CA) with a removable Bayer mask for collection of co-registered color and fluorescence images. A Photofluor II broad band light source (89 North) was expanded onto the surgical field through a liquid light guide and used unfiltered for white light illumination. Nile Red and NR5 were excitated using a 545 t 12.5 nm bandpass filter, while fluorescence emission images were collected with a 605±35 nm bandpass filter. Oxazine 4 (Exciton, West Chester, Ohio) was used for nerve and adipose co-staining and ratiometic imaging studies. Oxazine 4 was excited using a 620±30 nm bandpass filter, while fluorescence emission images were collected through a 700±37.5 nm bandpass filter. Approval for the use of animals in the study was obtained from the Institutional Animal Care and Use Committee (IACUC) at Oregon Health and Science University (OHSU). In vivo staining studies were carried out on male CD-1 mice using an optimized direct/topical administration protocol.^2 Staining was performed concurrently on no more than two nerve sites (sciatic nerve or brachial plexus) per mouse. Nile Red and all Nile Red derivatives were formulated in a previously published co-solvent formulation (10% DMSO, 5% Kolliphor, 63.75% serum and 21.25% PBS^14) at a final concentration of 100 μM. Each formulated fluorophore was incubated for 5 minutes on the nerve site (n=4 nerve sites/fluorophore), followed by 9 short flushes with PBS. The nerve site was then incubated with blank co-solvent not containing fluorophore for 5 minutes, followed again by 9 short flushes with PBS.
# [2] = tested on: U2OS human osteosarcoma cell line; experiment: Nile Red derivative cell staining and imaging, fixed and live cells; assay type: cell-based; details: 1 μM; for fluorescence intensity in fixed cells: U2OS fixed with 4% PFA, imaged without washing; for fluorescence intensity in live cells without washing / structures observed in live cells without washing: U2OS live, imaged in staining solution
# Experimental: The U2OS human osteosarcoma cell line was cultured in Dulbecco's Modified Eagle Medium (DMEM, Thermo Fisher Scientific, Waltham, Mass.) with 10% fetal bovine serum (FBS, VWR, Radnor, Pa.) and 1% Penicillin/Steptomycin 100× (Thermo Fisher Scientific) at 37° C. in 5% CO2. For live cell imaging studies, Fluorobrite DMEM media (Thermo Fisher Scientific) was used in place of DMEM. For imaging studies, cells were grown in 96-well glass bottom plates (Cellvis, Mountain View, Calif.) for 48 hours, with a final confluence of <80%. Nile Red and its derivatives were prepared at 1-10 mM stock concentration in DMSO and diluted into media or buffer for cell staining and imaging studies.
# Cell staining studies were completed on fixed and live U2OS cells using Nile Red and each synthesized Nile Red derivative described as follows. For fixed cell staining, cells were washed once with 1× phosphate buffered saline (PBS), then fixed with 4% paraformaldehyde (PFA) for 20 minutes at room temperature. The PFA was removed and each well was washed three times for 5 mins per wash (3×5 mins) with 1×PBS. The Nile Red fluorophores were diluted into 1×PBS to a final concentration of 1 μM, incubated for 5 minutes with the cells, and images were collected without washing. Live cell staining was completed using two methods. First, cells were washed once with Fluorobrite DMEM. The Nile Red fluorophore solution was prepared in Fluorobrite DMEM by diluting to a final concentration of 1 μM for staining, where cells were stained for 5 minutes. The fluorophore containing media was removed and the cells were fixed for 20 minutes using 4% PFA. Cells were then washed 3×5 mins with Fluorobrite DMEM prior to imaging. Second, cells were washed with Fluorobrite DMEM without FBS once for 5 minutes. Nile Red fluorophore solutions were prepared in Fluorobrite without FBS at 1 μM final concentration for cell staining. The cells were stained with the prepared solution for 5 minutes and imaged in the staining solution. All images were collected at their ideal exposure times to permit visualization of stained intracellular structures.
# All ex vivo and cellular fluorescence and white light images were collected using a Zeiss AxioObserver inverted fluorescence microscope (Carl Zeiss, Oberkochen, Germany). All cell images were collected at 40× magnification and all tissue section images were collected at 10× magnification. Fluorescence excitation was completed using a Photofluor II broad band light source (89 North, Burlington, Vt.) filtered with a 545±12.5 nm bandpass excitation filter. Fluorescence images were collected using a 605±35 nm bandpass emission filter and a AxioCam 506 monochromo camera (Zeiss). All Filters were Purchased from Chroma Technologies (Bellows Falls, Vt.).
# [3] = Spectroscopic analysis: absorbance, emission and quantum yield of Nile Red derivatives; assay type: physicochemical; details: in DMSO; for QY (quantum yield): standard Rhodamine B
# Experimental: Tandem liquid chromatography mass spectroscopy (LCMS) analysis (Agilent 1260 LC system with a 6224 time of flight (TOF) MS, Agilent, Santa Clara, Calif.) was performed using a 2.7 micron C18 column (4.6×50 mm, Agilent). High performance liquid chromatography (HPLC) purification (Agilent 1260 system with a preparative pump) was performed using a 5 micron C18 column (21.2×150 mm, Agilent). For both HPLC and LCMS, the mobile phase consisted of HPLC grade acetonitrile and water, treated with 0.1% formic acid. Spectroscopic analysis was performed on a Spectramax M5 spectrometer (Molecular Devices, Sunnyvale, Calif.) using a quartz cuvette with a 1 cm pathlength. Quantum yield was calculated according to equation (1).
# Where Ø is the quantum yield, F is the integrated fluorescence intensity, f is the absorbance at the excitation wavelength and n is the refractive index of the solvent. S refers to the quantum yield standard (Rhodamine B)^25 and X refers to the unknown sample.
# [4] = U2OS, fixed and washed prior to imaging
Compound,adipose to muscle ratio [1],adipose to nerve ratio [1],fluorescence intensity in fixed cells ([2]; 5 min),fluorescence intensity in live cells without washing ([2]; 5 min),structures observed in live cells without washing ([2]; 5 min),Max Abs [3] [nm],Max Em [3] [nm],Stokes Shift [3] [nm],QY (quantum yield) [3],"staining pattern in cells stained live, then fixed [2, 4]","exposure time in cells stained live, then fixed ([2]; U2OS, 5 min, fixed and washed prior to imaging)"
CCN(CC)c1ccc2nc3c4ccc(-c5ccc(N)cc5)cc4c(=O)cc-3oc2c1 [NR1],"lower than Nile Red, adipose to muscle contrast was similar",increased contrast over control autofluorescence with similar adipose to nerve contrast,brighter in vitro fluorescence than NR12,brighter than other Nile Red derivatives with higher quantum yields such as NR12 and NR6,Prominent lipid droplet like structures,555,635,80,0.08,–,–
"CCN(CC)c1ccc2nc3c4cc(-c5ccc(N)cc5)ccc4c(=O)cc-3oc2c1 [NR10, 2-(4-aminophenyl)-9-(diethylamino)-5H-benzo[a]phenoxazin-5-one]","lower than Nile Red, adipose to muscle contrast was similar",increased contrast over control autofluorescence with similar adipose to nerve contrast,–,–,–,555,635,80,0.04,more cytoplasmic structures were stained,–
"CCN(CC)c1ccc2nc3c4cc(C#Cc5cc(C=O)ccc5OC)ccc4c(=O)cc-3oc2c1 [NR9, 3-((9-(diethylamino)-5-oxo-5H-benzo[a]phenoxazin-2-yl)ethynyl)-4-methoxybenzaldehyde]",–,–,–,–,Prominent lipid droplet like structures,565,640,75,0.48,–,–
"CCN(CC)c1ccc2nc3c4cc(C#Cc5cccc(C=O)c5)ccc4c(=O)cc-3oc2c1 [NR8, 3-((9-(diethylamino)-5-oxo-5H-benzo[a]phenoxazin-2-yl)ethynyl)benzaldehyde]",–,–,bright,brightest of the synthesized derivatives,–,565,640,75,0.48,–,–
"CCN(CC)c1ccc2nc3c4cc(C#Cc5ccc(C=O)c(S(C)(=O)=O)c5)ccc4c(=O)cc-3oc2c1 [NR6, 4-((9-(diethylamino)-5-oxo-5H-benzo[a]phenoxazin-2-yl)ethynyl)-2-(methylsulfonyl)benzaldehyde]",–,increased contrast over control autofluorescence with similar adipose to nerve contrast,–,–,–,570,640,70,0.45,more cytoplasmic structures were stained,less than 10 sec
"CCN(CC)c1ccc2nc3c4cc(C#Cc5cccc(N)c5)ccc4c(=O)cc-3oc2c1 [NR7, 2-((3-aminophenyl)ethynyl)-9-(diethylamino)-5H-benzo[a]phenoxazin-5-one]",–,–,–,–,–,565,640,75,0.14,more cytoplasmic structures were stained,–
